Measured values as given in article PMC8009478, “Novel Curcumin-Diethyl Fumarate Hybrid as a Dualistic GSK-3β Inhibitor/Nrf2 Inducer for the Treatment of Parkinson’s Disease” (ACS Chemical Neuroscience, 2020).
Several values for one entry are separate records, joined by “and”; a condition that tells them apart may be missing. Equal entries are not always repeated. Structures can show the parent of a compound that is named as a salt. Blank lines part the entries; values can stand above or below the molecule they belong to.

Assays:
in vitro = details: pig, PAMPA, pH 7.4
GSK-3β [1] = tested on: GSK-3β; set-up: method as in PMID 28597702; details: previously identified GSK-3β inhibitors; ref 21b; cited from earlier work
SH-SY5Y cells [2] = assay: t-BuOOH-induced intracellular ROS formation (H2DCF-DA probe); assay type: cell-based, human; details: then t-BuOOH 100 μM for 30 min
Description: Oxidative stress represents a remarkable pathological feature in NDDs; it is the consequence of an imbalance between the formation of reactive radical species, among others ROS, and the function of many defense antioxidant enzymes. Initially, the potential of compounds 4–7 as indirect antioxidants was investigated[31] by assessing their capability to protect from oxidative stress through prevention of ROS formation upon exposure to tert-butyl hydroperoxide (t-BuOOH). In detail, SH-SY5Y cells were first chronically treated for 24 h (the time necessary to activate the endogenous antioxidant system) with 4–7 (5 μM) and then exposed to 100 μM of t-BuOOH for 30 min; DMF (5 and 10 μM) was employed as the reference compound. Then, the intracellular ROS formation was detected by fluorescent probe 2′-7′-dichlorodihydrofluorescein diacetate (H2DCF-DA).
Figure 3 Antioxidant activity of compounds 4–7 and DMF against t-BuOOH-induced ROS formation in SH-SY5Y cells. Cells were treated with compounds 4–7 (5 μM) and DMF (5 and 10 μM) for 24 h and then with t-BuOOH (100 μM) for 30 min. At the end of treatment, the ROS formation was evaluated by probe H2DCF-DA. Results are expressed as mean ± SEM of at least three independent experiments (* p < 0.05 and ** p < 0.01 vs cells treated with t-BuOOH at one-way ANOVA with the Dunnett post hoc test).
ROS formation was evaluated by using the fluorescent probe H2DCF-DA, as previously described.[43]

SH-SY5Y cells [3] = assay: Intracellular GSH levels (MCB probe); assay type: cell-based, human; details: DMF at 5 and 10 μM, 24 h
Method: By observing the reduction of ROS levels following a long treatment of the curcumin-DEF hybrids before the treatment with t-BuOOH, we hypothesized that the antioxidant effect might likely result from an increase in levels of GSH. This endogenous antioxidant plays critical roles in protecting cells against oxidative stress damage.[32] Thus, the intracellular GSH levels were analyzed by employing the same experimental conditions used to evaluate the indirect antioxidant effect by fluorescent probe monochlorobimane (MCB). […] For the most promising compounds 4 and 5, the effect on GSH levels at different times (3–24 h) was studied.
Figure 4 Effects of compounds 4–7 and DMF on GSH levels in SH-SY5Y cells. Cells were treated with (A) compounds 4–7 (5 μM) and DMF (5 and 10 μM) for 24 h. (B) Cells were treated with compounds 4 and 5 (5 μM) for different times (3, 6, 12, and 24 h). At the end of the treatment, the GSH levels were evaluated by probe MCB. Results are expressed as mean ± SEM of at least three independent experiments (** p < 0.01 and *** p < 0.001 vs untreated cells at one-way ANOVA with the Dunnett post hoc test).
GSH levels were evaluated by using the fluorescent probe MCB, as previously described.[44]

[4] = set-up: method as in earlier work; details: literature values of commercial drugs; ref 1 (Di et al., 2003); cited from earlier work
PAMPA-BBB assay = details: for Papp at 2.5 h: pig, PAMPA, pH 7.4; for prediction (penetration in the CNS): from PAMPA-BBB Pe
[5] = Chemical stability study by RP-HPLC; assay type: physicochemical; details: DMSO 0.50 mg/mL, pH 7.4 with 50 mM phosphate, 70 °C, 24 h
Method: Conscious of the liabilities that might affect the newly synthesized curcumin-fumarate hybrids involving both the curcumin scaffold and the ester function, the chemical stability of the ester-based 6 and its carboxylic-acid counterpart 7 was studied by RP-HPLC.[21b]
The tested derivatives 6 and 7 were dissolved in DMSO (0.50 mg/mL), and the pH of the solution was adjusted to 7.4 using 50 mM phosphate. The obtained solutions were then maintained at 70 °C (oven) for 24 h and analyzed by RP-HPLC under the conditions reported in the General Procedures section.

GSK-3β [6] = target: T1, GSK-3β (Homo sapiens, UniProt P49841); assay: GSK-3β inhibition, luminescent kinase assay (Kinase-Glo); details: for IC50: GSK-3β inhibition IC50 (μM) ± SEM, human recombinant enzyme, luminescence method
Method: A kinetic study was performed in which the concentrations of both ATP and tested compounds were varied, while the concentration of the substrate was kept constant.
GSK-3β inhibition . Kinase-Glo assays (Promega Biotech Iberica, SL) were performed in assay buffer using
black 96-well plates. In a typical assay, 10 µl (10 µM) of test compound (dissolved in DMSO at 1 mM concentration and diluted in advance in assa y buffer to the desired concentration) and 10 µL (20 ng) of
enzyme were added to each well followed by 20 µl of assay buffer containing 50 µM substrate and 2 µM ATP.
After 30 -min incu bation at 30 °C
the enzymatic reaction was stopped with 40 µL of Kinase -Glo reagent. Glow -type luminescence was recorded
after 10 min using a FLUOstar Optima (BMG Labtechnologies GmbH, Offenburg Germany) multimode reader.
The activity is proportional to th e difference in the total and consumed ATP. The inhibitory activities were
calculated on the basis of maximal activities measured in the absence of inhibitor. The IC 50 was defined as the concentration of each compound that reduces a 50 % the enzymatic activity with respect to that without
inhibitors. Five different concentrations by duplicate were used to determine the dose/response curve.

[7] = tested on: C. elegans BY250 [vtIs7 (Pdat-1:GFP)] CEP neurons; assay: 6-OHDA-induced neurodegeneration of CEP neurons in the C. elegans model of PD; assay type: in vivo, Caenorhabditis elegans; details: 6-OHDA 5 mM alone for 30 min, scored after 72 h
Description: The nematode Caenorhabditis elegans (C. elegans) has been increasingly employed as a genetically tractable in vivo model to study the molecular mechanisms involved in several NDDs due to a short life cycle, fast reproduction, and a highly conserved inheritance (genetic basis).[35] This invertebrate model offers the opportunity to take advantage of the significant conservation of genes and metabolic pathways common to both invertebrates and humans. At the neuronal level, the adult wild-type C. elegans organism contains only eight DA neurons that repeat the features of DA neurons of mammalian, making it possible to simplify the investigations considerably. In the transgenic BY250 [vtIs7 (Pdat-1:GFP)] strain, six DA neurons in the head, namely the four sensory cephalic (CEP) and the two anterior deirid (ADE) neurons, express the green fluorescent protein (GFP) and can be clearly visualized by fluorescence microscopy analysis and thus scored over time.[36] Indeed, in this model, investigations of DA neurons degeneration in vivo are feasible through a first exposition of the nematode to PD-inducing toxin, namely 6-OHDA, followed by direct visualization of the GFP-labeled DA neurons.[37] It is thus possible to screen small molecules for their anti-PD potential, in terms of rescue of the DA neurodegeneration phenotype manifested upon neurotoxin exposure, through visualization and scoring of the alterations of CEP neuron count or neuronal morphology. […] This effect makes it possible the identification of neuroprotective agents with the ability to activate Nrf2 through the inhibition of GSK-3.[38] The curcumin-DEF hybrids 4 and 5 were investigated in the above C. elegans model for their protective effects on 6-OHDA-induced degeneration of a subclass of DA neurons. Animals were incubated with 5 μM concentration of 4 and 5, in the presence of 5 mM of 6-OHDA, for 30 min. After 72 h, the animals were studied by examining the four CEP neurons. Degenerating CEP neurons were morphologically analyzed and quantified (Figure 8). We recorded that in animals treated with 6-OHDA, 68% of CEP neurons degenerated.
Figure 8 Effects of 4 and 5 on 6-OHDA-induced neurodegeneration in C. elegans. Animals were treated with 4 or 5 (5 μM) in the presence of 6-OHDA (5 mM) for 30 min. At the end of incubation, treated animals were placed on fresh agar plates for 72 h and then visualized as described in the Materials and Methods section. (A) In nontreated vtIs7 [pdat-1::GFP] transgenic animals, dopaminergic neurons express GFP, with two of the four CEP cell bodies (white arrows) and relative dendrites (arrowheads) visible in this focal plane in the head. (B) 6-OHDA treatment causes the degeneration of CEP dendrites (empty arrowheads) and two cell bodies (gray arrows), in treated animals. The other two CEP neurons are not visible anymore. (C) Compound 5 cotreatment partially rescues the 6-OHDA-induced toxic effects, with degeneration of one of the CEP dendrites (empty arrowhead) but not the other (arrowhead) and with one CEP cell body still viable (white arrow) and one dying (gray arrow) in this focal plane. […] ADE neurons, which are less affected by 6-OHDA treatment, are also visible but were not scored (asterisks). (D) Quantification of degenerating CEP neurons. Data are expressed as percentages of degenerating neurons and reported as mean ± SEM of at least three independent experiments. […]

[8] = pig, PAMPA, 2.5 h, pH 7.4
GSK-3β [9] = target: T1, GSK-3β; assay: Kinetic study of GSK-3β inhibition, competition with ATP (ADP-Glo Kinase Assay); assay type: biochemical; details: ATP 1 to 50 μM; inhibitors 5 and 10 μM; substrate 25 μM; double reciprocal plot
Method: Figure 2 Kinetic data for the curcumin-DEF hybrids 5 and 6. In the reaction mixture, the concentration of compounds employed is reported in the plot, the concentration of the substrate is constant (25 μM), and the concentration of ATP changes from 1 to 50 μM. Each point is the mean of two different experiments analyzed in triplicate.
Kinetic experiments were performed using the ADP-Glo Kinase Assay,[42] in which ATP concentration varied from 1 to 50 μM, the concentrations of inhibitors employed were 5 and 10 μM, while the concentration of GS2 was kept constant (25 μM). Graphs (Figure 2) report the double reciprocal plot of the data.

T1 sequence (P49841 whole entry): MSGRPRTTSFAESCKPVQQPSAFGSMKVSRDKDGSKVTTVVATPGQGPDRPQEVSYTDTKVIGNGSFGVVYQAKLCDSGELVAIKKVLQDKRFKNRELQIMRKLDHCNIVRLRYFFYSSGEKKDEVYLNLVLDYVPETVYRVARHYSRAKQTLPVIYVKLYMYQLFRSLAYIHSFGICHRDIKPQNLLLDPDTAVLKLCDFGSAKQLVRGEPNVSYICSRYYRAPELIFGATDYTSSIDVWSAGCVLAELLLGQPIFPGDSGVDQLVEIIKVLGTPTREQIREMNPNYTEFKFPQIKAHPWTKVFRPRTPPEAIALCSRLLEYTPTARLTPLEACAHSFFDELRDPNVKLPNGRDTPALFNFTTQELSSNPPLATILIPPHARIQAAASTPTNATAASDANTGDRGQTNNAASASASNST

Structure (SMILES): CCn1cc(C(=O)O)c(=O)c2cc(F)c(N3CCNCC3)nc21 [Enoxacin]
Papp at 2.5 h (in vitro): 0.5 ×10⁻⁶ cm/s

Structure (SMILES): COc1ccc(/C=C/C(=O)/C=C(O)/C=C/c2ccc(OC)cc2)cc1 [Compound 1]
IC50 (GSK-3β [1]): 0.53 µM

Structure (SMILES): COC(=O)/C=C/C(=O)OC [DMF, dimethyl fumarate, reference compound]
t-BuOOH-induced intracellular ROS formation (SH-SY5Y cells [2]; DMF 5 and 10 μM for 24 h): significant reduction | increase in GSH levels (SH-SY5Y cells [3]): 2–3 fold

Structure (SMILES): O=C(/C=C(O)/C=C/c1ccc(OCc2ccccc2)cc1)/C=C/c1ccc(OCc2ccccc2)cc1 [Compound 3]
IC50 (GSK-3β [1]): 2.49 µM

Structure (SMILES): Cn1c(=O)c2c(ncn2C)n(C)c1=O [Caffeine, reference compound]
Papp at 2.5 h (PAMPA-BBB assay): 0.5 ×10⁻⁶ cm/s

Structure (SMILES): NCCc1cc(O)c(O)cc1O [6-OHDA, 6-hydroxydopamine, reference compound]
degenerating CEP neurons [7]: 68%

Structure (SMILES): COc1ccc(/C=C/C(O)=C/C(=O)/C=C/c2ccc(OCc3ccccc3)cc2)cc1 [Compound 2]
IC50 (GSK-3β [1]): 2.78 µM

Continued, in another order:

Papp at 2.5 h (PAMPA-BBB assay): 0.4 ×10⁻⁶ cm/s
Structure (SMILES): CN1C(C(=O)Nc2ccccn2)=C(O)c2ccccc2S1(=O)=O [Piroxicam, reference compound]
Bibl. Pe [4]: 2.5 10-6 cm s-1

Papp at 2.5 h (PAMPA-BBB assay): 5.9 ×10⁻⁶ cm/s
Structure (SMILES): CN(C)CCCN1c2ccccc2Sc2ccccc21 [Promazine, reference compound]
Bibl. Pe [4]: 8.8 10-6 cm s-1

melting point: 182 to 184 °C | prediction (penetration in the CNS) (PAMPA-BBB assay): CNS +/CNS – | Papp at 2.5 h (PAMPA-BBB assay): 1.7 ± 1 ×10⁻⁶ cm/s | IC50 (GSK-3β [6]): > 10 µM | inhibition at 10 µM (GSK-3β [6]; read-out: GSK-3β inhibition, inhibition (%)): 46%
Structure (SMILES): O=C(O)/C=C/C(C(=O)/C=C/c1ccc(OCc2ccccc2)cc1)=C(O)\C=C\c1ccc(OCc2ccccc2)cc1 [Compound 7, (2E,4Z,6E)-7-(4-(Benzyloxy)phenyl)-4-((E)-3-(4-(benzyloxy)phenyl)acryloyl)-5-hydroxyhepta-2,4,6-trienoic Acid]
t-BuOOH-induced intracellular ROS formation (SH-SY5Y cells [2]; 5 μM for 24 h): not | chemical stability [5]: formation of a degradation product was observed

Pe (10-6 cm s-1) [8]: 8,7 10-6 cm s-1
Structure (SMILES): CNCCCN1c2ccccc2CCc2ccccc21 [Desipramine]

mechanism of inhibition as regards competition with ATP (GSK-3β [9]): noncompetitive inhibitors of ATP binding | chemical stability [5]: stable | melting point: 153 to 155 °C | Papp at 2.5 h (PAMPA-BBB assay): 4.5 ± 0.6 ×10⁻⁶ cm/s | IC50 (GSK-3β [6]): 6.1 µM and 6.09 µM
Structure (SMILES): CCOC(=O)/C=C/C(C(=O)/C=C/c1ccc(OCc2ccccc2)cc1)=C(O)\C=C\c1ccc(OCc2ccccc2)cc1 [Compound 6, Ethyl (2E,4Z,6E)-7-(4-(Benzyloxy)phenyl)-4-((E)-3-(4-(benzyloxy)phenyl)acryloyl)-5-hydroxyhepta-2,4,6-trienoate]
t-BuOOH-induced intracellular ROS formation (SH-SY5Y cells [2]; 5 μM for 24 h): not | prediction (penetration in the CNS) (PAMPA-BBB assay): CNS + (compounds showing a Pe value superior to 2.26 × 10^–6 cm s^–1 could be regarded as able to permeate the brain compartment and thus classified as (CNS +))
